Strand notation (5' to 3'): a small letter for the sugar, then the base; units joined by * are phosphorothioate-linked, units joined directly phosphodiester-linked; [ ] holds rarer units or linkages, { } end groups; capitals alone tell only the bases. k = constrained ethyl (cEt); [5mC] = 5-methylcytosine; d = 2'-deoxy (DNA)
Tested on: Yap1 mRNA
Assay: Antisense inhibition of human Yap1 in A-431 cells by cEt gapmers, single dose (Example 3, RTS36584)
Format: cell-based
Procedure, shortened: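 Values are % untreated control: Yap1 mRNA by quantitative RT-PCR (RTS36584), normalized to total RNA by RiboGreen. Before RNA isolation, 5,000 A-431 cells per well were exposed ~48 h to 2,000 nM 16-mer cEt gapmer, delivered without transfection reagent.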

[1] = Table 35, Yap1 mRNA as percent of untreated control, 3-10-3 cEt gapmers targeting SEQ ID NO: 1 and 2, single dose
[2] = Table 11, A-431 cells, 5,000 cells per well, free uptake, 2,000 nM oligonucleotide, approx. 48 hours, primer probe set RTS36584, Yap1 mRNA normalized to RIBOGREEN, percent of untreated control
[3] = Table 34, Yap1 mRNA as percent of untreated control, 3-10-3 cEt gapmers targeting SEQ ID NO: 1 and 2, single dose
[4] = Table 27, Yap1 mRNA by 3-10-3 cEt gapmers targeting SEQ ID NO.: 1, and 2, percent of untreated control
[5] = Table 28, Yap1 mRNA as percent of untreated control, 3-10-3 cEt gapmers targeting SEQ ID NO.: 1, and 2
[6] = Table 10, A-431 cells, 5,000 cells per well, free uptake, 2,000 nM oligonucleotide, approx. 48 hours, primer probe set RTS36584, Yap1 mRNA normalized to RIBOGREEN, percent of untreated control
[7] = Table 26, Yap1 mRNA by 3-10-3 cEt gapmers targeting SEQ ID NO.: 1, and 2, percent of untreated control
[8] = Table 29, Yap1 mRNA as percent of untreated control, 3-10-3 cEt gapmers targeting SEQ ID NO.: 1, and 2
[9] = Table 12, A-431 cells, 5,000 cells per well, free uptake, 2,000 nM modified oligonucleotide, approx. 48 hours, RTS36584, normalized to RIBOGREEN, Yap1 mRNA relative to untreated control cells
[10] = Table 13, A-431 cells, 5,000 cells per well, free uptake, 2,000 nM modified oligonucleotide, approx. 48 hours, RTS36584, normalized to RIBOGREEN, Yap1 mRNA relative to untreated control cells
[11] = Table 9, A-431 cells, 5,000 cells per well, free uptake, 2,000 nM, approximately 48 hours, RTS36584, normalized to RIBOGREEN, Yap1 mRNA relative to untreated control cells
[12] = Table 8, A-431 cells, 5,000 cells per well, free uptake, 2,000 nM, approximately 48 hours, RTS36584, normalized to RIBOGREEN, Yap1 mRNA relative to untreated control cells

## 1074645 (antisense kA*kA*kT*dT*dG*dA*dA*dG*dG*dG*d[5mC]*d[5mC]*dA*kA*kA*kA) [compound 1074645]
[1]
  YAP1 (% UTC): 81 % UTC

## 958548 (kG*kA*k[5mC]*dA*d[5mC]*dA*dT*dA*d[5mC]*dT*d[5mC]*dT*dA*kG*kT*kT; antisense) [Compound 958548]
[2]
  YAP1 (% UTC): 21 % UTC

## 1075732 (kA*kA*kT*dA*dA*d[5mC]*d[5mC]*dT*d[5mC]*dG*dA*dG*dT*kG*k[5mC]*kT; antisense) [compound 1075732]
[3]
  YAP1 (% UTC): 36 % UTC

## 1074573 (DNA kA*kT*kT*dA*dT*dG*dA*dA*d[5mC]*d[5mC]*dT*dA*d[5mC]*kT*k[5mC]*kA) [compound 1074573]
[4]
  YAP1 (% UTC): 14 % UTC

## 1075022 (antisense kA*kT*kT*dT*dA*d[5mC]*dA*dA*d[5mC]*d[5mC]*dT*dA*dG*kA*kT*kT) [compound 1075022]
[5]
  YAP1 (% UTC): 91 % UTC

## 958682 (k[5mC]*k[5mC]*kA*dT*dG*dA*dG*dG*dG*dA*d[5mC]*dT*d[5mC]*k[5mC]*k[5mC]*kA; antisense) [Compound 958682]
[6]
  YAP1 (% UTC): 123 % UTC

## 1076108 (kA*kA*kA*d[5mC]*dA*dA*dA*dA*d[5mC]*d[5mC]*dG*dG*d[5mC]*kT*kT*kT; antisense) [compound 1076108]
[7]
  YAP1 (% UTC): 116 % UTC

## 1075534 (kA*k[5mC]*k[5mC]*d[5mC]*dA*dA*dG*dG*dA*d[5mC]*dA*dG*d[5mC]*kA*k[5mC]*kA; antisense) [compound 1075534]
[5]
  YAP1 (% UTC): 53 % UTC

## 1075380 (antisense kA*k[5mC]*kT*dA*dA*dA*dA*d[5mC]*dT*dG*dA*d[5mC]*dT*kG*kT*k[5mC]) [compound 1075380]
[3]
  YAP1 (% UTC): 94 % UTC

## 1074543 (k[5mC]*k[5mC]*kT*dA*dG*dG*d[5mC]*dA*d[5mC]*dT*dA*dT*d[5mC]*k[5mC]*kA*k[5mC]; antisense) [compound 1074543]
[8]
  YAP1 (% UTC): 57 % UTC

## 1075822 (k[5mC]*kT*kT*dA*dG*dT*dA*dA*dT*dT*dG*d[5mC]*d[5mC]*k[5mC]*kA*kT; antisense) [compound 1075822]
[5]
  YAP1 (% UTC): 35 % UTC

## 958494 (kT*kA*kG*d[5mC]*dA*d[5mC]*dT*dA*dG*dG*dA*dG*dG*kA*kA*kA; antisense) [Compound 958494]
[9]
  YAP1 (% UTC): 28 % UTC

## 958718 (antisense kG*kA*kA*d[5mC]*dA*d[5mC]*dT*dA*dT*dA*dG*d[5mC]*dT*kT*kG*kG) [Compound 958718]
[2]
  YAP1 (% UTC): 4 % UTC

## 958630 (antisense kG*k[5mC]*kG*dG*dT*dA*dA*d[5mC]*dT*d[5mC]*dT*dT*d[5mC]*kT*kT*kT) [Compound 958630]
[10]
  YAP1 (% UTC): 52 % UTC

## 958557 (k[5mC]*kA*k[5mC]*dA*dA*d[5mC]*d[5mC]*dA*dA*d[5mC]*dT*dA*dT*kT*kA*k[5mC]; antisense) [Compound 958557]
[6]
  YAP1 (% UTC): 10 % UTC

## 1074223 (antisense kG*kA*kA*dA*d[5mC]*dA*dG*d[5mC]*dT*d[5mC]*d[5mC]*d[5mC]*dA*kA*k[5mC]*kT) [compound 1074223]
[8]
  YAP1 (% UTC): 48 % UTC

## 958493 (kA*kA*kA*d[5mC]*dA*dG*dT*d[5mC]*dT*dT*d[5mC]*dA*dG*k[5mC]*k[5mC]*kT; antisense) [Compound 958493]
[2]
  YAP1 (% UTC): 16 % UTC

## 958751 (antisense kT*k[5mC]*kA*dA*dT*dG*d[5mC]*dA*dG*dG*dA*dT*dT*k[5mC]*k[5mC]*kA) [Compound 958751]
[11]
  YAP1 (% UTC): 30 % UTC

## 958739 (antisense kA*kG*k[5mC]*dA*dA*dT*dA*dG*dA*dG*dT*dA*dA*k[5mC]*k[5mC]*kA) [Compound 958739]
[9]
  YAP1 (% UTC): 4 % UTC

## 1074575 (DNA kA*k[5mC]*kA*dT*dT*dA*dT*dG*dA*dA*d[5mC]*d[5mC]*dT*kA*k[5mC]*kT) [compound 1074575]
[8]
  YAP1 (% UTC): 14 % UTC

## 958358 (antisense kG*kG*k[5mC]*dG*dG*d[5mC]*dT*dT*dG*dA*dA*dG*dA*kA*kG*kG) [Compound 958358]
[12]
  YAP1 (% UTC): 34 % UTC

## 1075662 (antisense kA*kA*kG*dG*dG*dA*dT*dA*d[5mC]*dA*dA*dG*dT*kG*kT*kT) [compound 1075662]
[5]
  YAP1 (% UTC): 78 % UTC

## 1075124 (kG*kT*kA*dA*dA*dA*dA*d[5mC]*d[5mC]*dT*dG*dG*dG*kT*kT*kT; antisense) [compound 1075124]
[3]
  YAP1 (% UTC): 58 % UTC

## 1076052 (kG*k[5mC]*kA*dA*dT*dA*dA*dA*dG*d[5mC]*dT*dG*dA*kA*k[5mC]*kT; antisense) [compound 1076052]
[3]
  YAP1 (% UTC): 23 % UTC

## 958368 (antisense kA*kT*k[5mC]*dT*dA*dG*d[5mC]*dT*dT*dG*dG*dT*dG*kG*k[5mC]*kA) [Compound 958368]
[12]
  YAP1 (% UTC): 11 % UTC

## 1075412 (antisense kT*k[5mC]*k[5mC]*dA*dA*dA*dA*dA*dG*dG*dG*dT*dA*kA*kG*kG) [compound 1075412]
[3]
  YAP1 (% UTC): 48 % UTC

## 958609 (antisense kT*kG*kA*d[5mC]*dA*dA*dG*dT*dG*dT*dG*d[5mC]*dA*kT*kT*kA) [Compound 958609]
[9]
  YAP1 (% UTC): 16 % UTC

## 958524 (kG*k[5mC]*kA*d[5mC]*dA*dT*dT*dA*dT*dG*dA*dA*d[5mC]*k[5mC]*kT*kA; antisense) [Compound 958524]
[9]
  YAP1 (% UTC): 13 % UTC

## 1074829 (kG*kG*kA*dT*dA*dA*dA*dA*dT*d[5mC]*d[5mC]*dA*d[5mC]*k[5mC]*kT*kG; antisense) [compound 1074829]
[4]
  YAP1 (% UTC): 92 % UTC

## 958374 (antisense k[5mC]*kA*kG*dA*dG*dG*dT*dG*d[5mC]*dT*dA*dG*d[5mC]*kT*kG*kG) [Compound 958374]
[12]
  YAP1 (% UTC): 38 % UTC

## 958661 (kT*kG*k[5mC]*d[5mC]*dG*dT*dT*dG*dG*d[5mC]*d[5mC]*d[5mC]*d[5mC]*kT*k[5mC]*k[5mC]; antisense) [Compound 958661]
[11]
  YAP1 (% UTC): 120 % UTC

## 958420 (antisense kT*kT*k[5mC]*dA*dT*dA*dA*dT*d[5mC]*dT*dG*dA*d[5mC]*kT*kA*kG) [Compound 958420]
[12]
  YAP1 (% UTC): 66 % UTC

## 1075029 (antisense kA*kT*kA*dT*dT*d[5mC]*dG*dA*d[5mC]*dA*d[5mC]*dT*dG*kG*kA*kG) [compound 1075029]
[1]
  YAP1 (% UTC): 33 % UTC

## 958695 (antisense kT*k[5mC]*kA*dA*dT*dT*d[5mC]*dT*d[5mC]*d[5mC]*dA*d[5mC]*d[5mC]*kA*kG*kA) [Compound 958695]
[10]
  YAP1 (% UTC): 45 % UTC

## 958737 (antisense kG*kG*kA*dA*dT*dA*d[5mC]*dA*dA*dG*d[5mC]*d[5mC]*d[5mC]*kG*kA*kG) [Compound 958737]
[6]
  YAP1 (% UTC): 8 % UTC

## 958603 (kT*kG*kG*dT*dA*dT*dG*dA*dA*dT*dT*d[5mC]*dT*kG*kA*kA; antisense) [Compound 958603]
[2]
  YAP1 (% UTC): 3 % UTC

## 958754 (antisense k[5mC]*k[5mC]*kT*dT*dA*dG*dG*dA*dA*dG*dG*d[5mC]*dT*k[5mC]*k[5mC]*k[5mC]) [Compound 958754]
[9]
  YAP1 (% UTC): 31 % UTC

## 958679 (kG*kT*kA*dA*d[5mC]*dT*dG*d[5mC]*d[5mC]*dA*d[5mC]*dA*dG*kT*kT*kA; antisense) [Compound 958679]
[9]
  YAP1 (% UTC): 77 % UTC

## 1074636 (antisense kA*kT*k[5mC]*dT*dA*dT*d[5mC]*dT*dT*d[5mC]*d[5mC]*d[5mC]*dA*kA*kG*k[5mC]) [compound 1074636]
[7]
  YAP1 (% UTC): 56 % UTC

## 1075727 (kT*kT*kA*dT*d[5mC]*dG*dG*dA*dG*dG*d[5mC]*dT*dT*k[5mC]*kG*k[5mC]; antisense) [compound 1075727]
[8]
  YAP1 (% UTC): 31 % UTC

## 958526 (kA*kG*kT*dA*dA*dG*dA*dA*d[5mC]*dA*dA*dT*d[5mC]*kT*kT*kG; antisense) [Compound 958526]
[11]
  YAP1 (% UTC): 6 % UTC

## 1074991 (antisense kA*kA*kT*dT*dA*dT*dT*dT*dG*dA*d[5mC]*dT*d[5mC]*k[5mC]*k[5mC]*k[5mC]) [compound 1074991]
[8]
  YAP1 (% UTC): 60 % UTC

## 958448 (antisense kG*k[5mC]*kG*dA*dA*dG*dG*d[5mC]*dG*dG*d[5mC]*dT*dG*k[5mC]*k[5mC]*k[5mC]) [Compound 958448]
[2]
  YAP1 (% UTC): 86 % UTC

## 1076205 (kT*kA*kG*dT*dA*dT*dA*dA*dT*dT*d[5mC]*dA*dT*kG*kA*k[5mC]; antisense) [compound 1076205]
[4]
  YAP1 (% UTC): 51 % UTC

## 1076463 (kG*kA*kT*dT*dA*dG*dT*dA*dA*d[5mC]*dA*d[5mC]*dT*kG*kA*kT; antisense) [compound 1076463]
[8]
  YAP1 (% UTC): 38 % UTC

## 958812 (kT*kA*k[5mC]*dT*dA*dT*dA*dA*dG*dA*d[5mC]*dA*d[5mC]*k[5mC]*kA*kA; antisense) [Compound 958812]
[6]
  YAP1 (% UTC): 31 % UTC
